Source: publication PMC4422956 (EJNMMI Research, 2014)

Assays:
human DA D2L receptor [1] = molecular target: T1, human DA D2L receptor (Homo sapiens, UniProt P14416); experiment: cAMP accumulation, HEK […] cells; assay type: cell-based; conditions: read-out: cAMP / Potency (converted)
T1 construct: gene DRD2; full-length D2L stably expressed in HEK 293 cells

human DA D2L receptor [2] = molecular target: T1, human DA D2L receptor; experiment: 3H-spiperone radioligand binding, membranes; conditions: read-out: pK i D 2 -high (converted)
Source text: 3H-spiperone radioligand binding, membranes on human DA D2L receptor

T1 sequence (P14416 whole entry): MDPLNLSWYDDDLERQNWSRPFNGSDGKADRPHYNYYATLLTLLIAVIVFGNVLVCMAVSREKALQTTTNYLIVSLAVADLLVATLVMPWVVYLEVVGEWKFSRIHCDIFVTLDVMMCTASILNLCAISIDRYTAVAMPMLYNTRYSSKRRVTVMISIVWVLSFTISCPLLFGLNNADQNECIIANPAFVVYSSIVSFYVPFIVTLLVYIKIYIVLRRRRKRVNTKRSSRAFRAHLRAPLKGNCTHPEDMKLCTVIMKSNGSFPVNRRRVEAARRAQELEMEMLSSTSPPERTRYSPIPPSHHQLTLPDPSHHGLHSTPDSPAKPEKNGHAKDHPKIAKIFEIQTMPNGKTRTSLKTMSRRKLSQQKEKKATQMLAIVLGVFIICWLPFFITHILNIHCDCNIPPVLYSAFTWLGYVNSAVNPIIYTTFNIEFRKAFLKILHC

In the case of `CCN1CCC[C@H]1CNC(=O)c1c(OC)ccc(I)c1O` [IBZM], the EC50 (human DA D2L receptor [1]) is reported as 0.000832 µM and the Ki (human DA D2L receptor [2]) is reported as 0.102 µM.
